From publication PMC9499463, “Potent Chlorambucil-Platinum(IV) Prodrugs” (International Journal of Molecular Sciences, 2022)
“And” between values parts separate entries of the source, which are not always exact repeats. Equal values may be shown once. Read-outs that look alike come from different tables or passages of the source.

Legend:
[1] = tested on: U87 glioblastoma; assay: MTT growth inhibition assay, 72 h; format: cell-based, human
[2] = tested on: panel of cell lines; assay: MTT growth inhibition assay, 72 h, over the cell line panel; format: cell-based, human
[3] = tested on: H460 lung; assay: MTT growth inhibition assay, 72 h; format: cell-based, human
[4] = tested on: A431 skin; assay: MTT growth inhibition assay, 72 h; format: cell-based, human
[5] = tested on: ADDP ovarian (cisplatin-resistant A2780 clone); assay: MTT growth inhibition assay, 72 h; format: cell-based, human; conditions: for GI50: MTT, 72 h; for fold more active than cisplatin: ADDP ovarian cell line
[6] = tested on: HT29 colon; assay: MTT growth inhibition assay, 72 h; format: cell-based, human; conditions: for GI50: MTT, 72 h
[7] = tested on: HT29 colon cells; assay: ROS detection assay (DCFH-DA fluorescence); format: cell-based, human; conditions: compounds at GI50 concentration, TBHP and NAC 20 μM
Procedure: HT29 colon cells were stained by DCFH-DA and then treated with the compounds at each specific GI50 concentration. Upon ROS production, the DCFH-DA produced […], a fluorescent product. The measured fluorescence was, therefore, proportional to the produced ROS. […] 56CLB at 24 h reported 395 RFU, 437 RFU at 48 h, and 558 RFU at 72 h (Table 6, Figure 14 and Figure S42), respectively, showing a significant production of ROS in comparison to control cells. 5CLB at 24 h produced 337 RFU, 324 RFU at 48 h, and 376 RFU at 72 h (Table 6, Figure 14 and Figure S42), respectively.
To investigate for the presence of ROS in treated cells, DCFDA/H2DCFDA-cellular ROS Assay Kit (Abcam, Cambridge, MA, USA) was used, as described. A total of 25,000 cells/mL of HT29 cells in DMEM were seeded in 96-well plates. Cells were washed with 1X kit buffer, then stained with 25 μM 2’,7’-dichlorofluorescein diacetate (DCFH-DA) and incubated for 45 min. DCFH-DA was then removed, and cells were then re-washed with 1X kit buffer, after which phenol red free media was added. Cells were then treated with GI50 drug concentration for each complex. The plates were directly scanned to measure fluorescence (relative fluorescence units (RFU)) at different time points using the Glo-Max®-Multimode microplate reader (Promega Corporation, Alexandra, VIC, Australia) at an excitation/emission of 485/535 nm. To generate the positive control (20 μM tert-butyl hydroperoxide (TBHP)), cells were washed with 1X kit buffer, and stained with DCFDA (25 μM) for 45 min. DCFDA was then removed and TBHP was added in phenol red free media. The plate was scanned to measure the RFU at different time points as mentioned above. The same method applies for the negative control treated with 20 μM N-acetylcysteine (NAC).

[8] = tested on: A2780 ovarian; assay: MTT growth inhibition assay, 72 h; format: cell-based, human
[9] = tested on: Du145 prostate; assay: MTT growth inhibition assay, 72 h; format: cell-based, human; conditions: for GI50: MTT, 72 h
[10] = tested on: non-tumor-derived MCF10A breast line; assay: MTT growth inhibition assay, 72 h; format: cell-based, human
[11] = tested on: MIA pancreas; assay: MTT growth inhibition assay, 72 h; format: cell-based, human; conditions: for fold more active than CLB: MIA pancreas cell line; for GI50: MTT, 72 h
[12] = tested on: SJ-G2 glioblastoma; assay: MTT growth inhibition assay, 72 h; format: cell-based, human
[13] = tested on: MCF-7 breast; assay: MTT growth inhibition assay, 72 h; format: cell-based, human; conditions: MTT, 72 h
[14] = tested on: BE2-C neuroblastoma; assay: MTT growth inhibition assay, 72 h; format: cell-based, human
[15] = Lipophilicity by HPLC (log kw); format: physicochemical; conditions: chromatographic lipophilicity index, extrapolated to 100% d.i.H2O
Description: For lipophilicity measurements, HPLC was utilized instead of the traditional shake-flask method, as described. A few studies have also reported the important and effective use of HPLC to measure the lipophilicity of compounds [66, 67]. Each complex was eluted under several isocratic ratios. A standard curve was then generated to calculate the log value of the capacity factor (log k) according to eqn (1). Following eqn (2), the percentage of organic solvent (CH3CN) in the mobile phase from each isocratic run was plotted against […] (Figure S34). Since log kw is the chromatographic lipophilicity index or measure of lipophilicity of the complex, a higher value corresponds to greater lipophilicity. Since PCLB, 5CLB, and 56CLB are structurally related, there were no significant variations in lipophilicity noted based on the calculated log kw values (Table 4). It is evident that PCLB is the least lipophilic of the group, with a calculated log kw value of 1.80, which is likely due to the absence of methyl groups in its phenanthroline system. 5CLB and 56CLB were the most lipophilic of the group with calculated log kw values of 1.90 and 1.87, respectively, and this is due to the presence of methyl substituents in their phenanthroline systems. […] Additionally, the chromatographic lipophilicity index of CLB was also measured using the abovementioned method, with a calculated log kw of 1.88, which is within the range observed for PCLB, 5CLB, and 56CLB. However, CLB was approximately 1-fold more lipophilic than PCLB. […] The order of increasing lipophilicity is […].
For lipophilicity measurements, analytical HPLC was utilized. Elution profiles were acquired on an Agilent Technologies 1260 Infinity instrument equipped with a Phenomenex Onyx^TM Monolithic C18-reverse phase column (100 × 4.6 mm, 5 µm pore size). The mobile phase consisted of solvents, A (0.06% TFA in d.i.H2O) and B (0.06% TFA in CH3CN/d.i.H2O (90:10)). Potassium iodide was used as an external dead volume marker to determine the dead time of the column. Retention times (TR) were measured at varying isocratic ratios ranging from 42% to 48% of solvent B at 1 mL/min. An injection volume of 10 µL was utilized. Capacity factors were determined according to Equation (1):(1) k=(TR−T0)/T0, where k is the capacity factor, TR is the retention time of the analyte, and T0 represents the dead time. A minimum of four different mobile compositions were used for each complex to calculate k. A linear plot was generated of log k against the concentration of CH3CN in the mobile phase to determine the value of log kw expressed by Equation (2):(2) logk=Sφ+logkw, where S is the slope, φ is the concentration of the CH3CN in the mobile phase and log kw represents the capacity factor of the complex in 100% d.i.H2O. […]

[16] = tested on: MCF-7 breast; conditions: MCF-7 cell line; read-out: GI50 MCF-7 of prodrug designed by Ma et al.; cited from earlier work
[17] = average over all cell lines tested, read-out: Average GI50 Values

| Structure (SMILES) | GI50 [1] | GI50 [2, 17] | GI50 [3] | GI50 [4] | GI50 [5] | GI50 [6] | ROS Production ([7]; 24 h) | ROS Production ([7]; 48 h) | ROS Production ([7]; 72 h) | GI50 [8] | GI50 [9] | GI50 [10] | fold more active than CLB [11] | GI50 [11] | GI50 [12] | GI50 [13] | GI50 [14] | fold more active than cisplatin [5] | further results |
| --- | --- | --- | --- | --- | --- | --- | --- | --- | --- | --- | --- | --- | --- | --- | --- | --- | --- | --- | --- |
| N.N.[Cl][Pt][Cl] [Cisplatin, cis-diamminedichloroplatinum(II), reference compound] | 3.8 ± 0.0011 µM | 5.842 ± 0.00061 µM | 0.9 ± 0.0002 µM | 2.4 ± 0.0003 µM | 28 µM | 11.3 µM | 214 ± 9 RFU | 214 ± 9 RFU | 200 ± 9 RFU | 1 ± 0.0001 µM | 1.2 ± 0.0001 µM | 5.2 ± 0.00052 µM | 5 fold | 7.5 ± 0.0013 µM | 0.4 ± 0.0001 µM | 6.5 ± 0.0008 µM | 1.9 ± 0.0002 µM | – | – |
| Cc1cc2cccnc2c2ncccc12.N[C@H]1CCCC[C@@H]1N.[Cl][Pt][Cl] [5MESS, [Pt^II(5-methyl-1,10-phenanthroline)(1S,2S-diaminocyclohexane)]Cl2] | 0.32 ± 2.6e-05 µM | 0.117 ± 1e-05 µM | 0.041 ± 5e-06 µM | 0.12 ± 2.5e-05 µM | 0.034 ± 2.3e-06 µM | 0.033 ± 3.8e-06 µM | 204 ± 4 RFU | 205 ± 3 RFU | 188 ± 3 RFU | 0.061 ± 1e-05 µM | 0.022 ± 2.7e-06 µM | 0.03 ± 1.8e-06 µM | – | 0.048 ± 2e-06 µM | 0.22 ± 1e-05 µM | 0.2 ± 1.2e-05 µM | 0.27 ± 3.8e-05 µM | 800 fold | – |
| O=C(O)CCCc1ccc(N(CCCl)CCCl)cc1 [CLB, 4-[bis(2-chloroethyl)amino] phenylbutyric acid, reference compound] | – | – | – | – | – | – | 110 ± 3 RFU | 190 RFU and 190 ± 5 RFU | 204 ± 4 RFU | – | – | – | – | – | – | – | – | – | GI50 ([1]; Homo sapiens): 38 µM; GI50 ([2]; Homo sapiens, average over all cell lines tested, read-out: Average GI50 Values): 22 µM; GI50 ([2]; Homo sapiens, range over the cell lines named in the sentence, read-out: GI50 values ranging (over cell lines)): 4.3 to 40 µM; log kw [15]: 1.88; GI50 ([3]; Homo sapiens, NCI-H460): 11 µM; GI50 ([4]; Homo sapiens, A-431): 35 µM; GI50 ([5]; Homo sapiens, Cisplatin-resistant A2780): 16 µM; GI50 ([6]; Homo sapiens, HT-29): 39 µM; GI50 ([8]; Homo sapiens, A2780): 4.3 ± 0.0004 µM; GI50 ([9]; Homo sapiens, DU-145): 27 µM; GI50 ([10]; Homo sapiens, MCF-10A): 17 µM; GI50 ([11]; Homo sapiens): 40 µM; GI50 ([12]; Homo sapiens, SJ-G2): 11 µM; GI50 ([13]; Homo sapiens, MCF7): 11 µM; GI50 ([14]; Homo sapiens, BE(2)-C): 20 µM |
| O=C1[O][Pt]2([NH][C@@H]3CCCC[C@H]3[NH]2)[O]C1=O (relative stereo) [Oxaliplatin, trans-L-(1R,2R-diaminocyclohexane) oxalatoplatinum(II), reference compound] | 1.8 ± 0.0002 µM | 1.463 ± 0.00032 µM | 1.6 ± 0.0001 µM | 4.1 ± 0.0005 µM | 0.8 ± 0.0001 µM | 0.9 ± 0.0002 µM | – | – | – | 0.16 ± 0.0001 µM | 2.9 ± 0.0004 µM | – | 44 fold | 0.9 ± 0.0002 µM | 3 ± 0.0012 µM | 0.5 ± 0.0001 µM | 0.9 ± 0.0002 µM | – | – |
| N[C@H]1CCCC[C@@H]1N.[Cl][Pt][Cl].c1cnc2c(c1)ccc1cccnc12 [PHENSS, [Pt^II(1,10-phenanthroline)(1S,2S-diaminocyclohexane)]Cl2] | 0.98 ± 0.00027 µM | 0.434 ± 0.00011 µM | 0.36 ± 3.5e-05 µM | 0.48 ± 0.00017 µM | 0.19 ± 4.7e-05 µM | 0.16 ± 4.5e-05 µM | 174 ± 2 RFU | 172 ± 9 RFU | 176 ± 7 RFU | 0.23 ± 3e-05 µM | 0.1 ± 3.8e-05 µM | 0.3 ± 5.8e-05 µM | – | 0.2 ± 5.7e-05 µM | 0.33 ± 6.6e-05 µM | 1.5 ± 0.0005 µM | 0.38 ± 4.6e-05 µM | 150 fold | – |
| CC(=O)N[C@@H](CS)C(=O)O [NAC, N-acetylcysteine, reference compound] | – | – | – | – | – | – | 71 ± 2 RFU | 85 ± 6 RFU | 91 ± 5 RFU | – | – | – | – | – | – | – | – | – | – |
| Cc1c(C)c2cccnc2c2ncccc12.N[C@H]1CCCC[C@@H]1N.[Cl][Pt][Cl] [56MESS, [Pt^II(5,6-dimethyl-1,10-phenanthroline)(1S,2S-diaminocyclohexane)]Cl2] | 0.035 ± 6.4e-06 µM | 0.04 µM and 0.036 µM | 0.021 ± 1.9e-06 µM | 0.029 ± 1e-06 µM | 0.013 ± 2.2e-06 µM | 0.01 ± 1.6e-06 µM | 240 ± 5 RFU | 218 ± 3 RFU | 255 ± 4 RFU | 0.076 ± 5.7e-05 µM | 0.0046 ± 3.9e-07 µM | 0.016 ± 1.2e-06 µM | ~4000 fold | 0.013 ± 2e-06 µM | 0.066 ± 2.2e-05 µM | 0.093 ± 4.4e-05 µM | 0.059 ± 4.1e-06 µM | more than 2000 fold | fold more active than CLB ([6]; HT29 colon cell line): ~4000 fold; fold increase in potency compared to CLB ([9]; Du145 prostate cell line): 6000 fold |
| N.N.O=C([O-])C1(C(=O)[O-])CCC1.[Pt+2] [Carboplatin, cis-diammine(1,1-cyclobutanedicarboxylato) platinum(II), reference compound] | > 50 µM | 32.2 µM | 14 µM | 24 µM | > 50 µM | > 50 µM | – | – | – | 9.2 ± 0.0029 µM | 15 µM | > 50 µM | – | > 50 µM | 5.7 ± 0.0002 µM | > 50 µM | 19 µM | – | – |
| N.N.O=C([O-])CCCc1ccc(N(CCCl)CCCl)cc1.O=C([O-])CCCc1ccc(N(CCCl)CCCl)cc1.[Cl-].[Cl-].[Pt+4] | – | – | – | – | – | – | – | – | – | – | – | – | – | – | – | – | – | – | GI50 [16]: 2.19 ± 2e-05 µM |
| CC(C)(C)OO [TBHP, tert-butyl hydroperoxide, reference compound] | – | – | – | – | – | – | 514 RFU and 514 ± 3 RFU | 336 RFU and 336 ± 2 RFU | 332 RFU and 332 ± 5 RFU | – | – | – | – | – | – | – | – | – | – |
